{
  "source": "patent US20260034192A1",
  "about": "(University of Saskatchewan, priority 2022, published 2026)",
  "test_system": "Hereford crossbred heifers",
  "test": "Cetrorelix pre-treatment before kisspeptin-10 in low-progesterone heifer model (Example 1)",
  "type": "in vivo, cattle",
  "method": "Methods: The human Kisspeptin-10 (hKP-10) peptide (YNWNSFGLRF-NH2; SEQ ID NO: 1) was custom synthetized at >95% of purity (MW: 1318.44 g/mol) by GenScript USA Inc, Piscataway, NJ, USA. The sequence is based on the predicted C-terminal region (112-121-NH2) of human metastin (Gen Bank accession #AY117143) and has been previously used in cattle. The peptide was previously tested for solubility and was dissolved in ultrapure water at 10 mg/mL.\nThe heifers were maintained in outdoor pens at the University of Saskatchewan Goodale Research Farm (52° north and 106° west). Heifers were fed barley silage and had hay and water ad libitum. A mineral salt block was available to heifers throughout the study period. All procedures were performed in accordance with Canadian Council on Animal Care and were approved by the University of Saskatchewan Protocol Review Committee.\nImmediately after ultrasound examination, heifers were given PGF2a twice at an interval of 12-hours. The low-progesterone bovine model described previously (Leonardi et al. 2019) was used to test the hypothesis. Briefly, the ovaries were examined daily by ultrasonography to detect ovulation. Three days after ovulation, follicles ≥5 mm in diameter in both ovaries were ablated by transvaginal ultrasound-guided follicle aspiration, inducing the emergence of new follicular wave 1.5 days after the procedure (Bergfelt et al. 1994). After follicular ablation, a progesterone device was placed in the vagina (CIDR; Zoetis). The day of wave emergence (Day 0) was defined as the day when the follicle of wave was first recorded (4 to 5 mm in diameter) with concurrent increase in diameter. Heifers were given PGF2α im on Days 3.5 and 4 (i.e., 8 and 8.5 days after ovulation) to cause luteolysis, however, the CIDR devices were left in place until Day 12 to maintain a low-progesterone milieu sufficient to prevent spontaneous ovulation. On Day 6, an indwelling jugular catheter was placed as described (Bergfelt et al. 1997) and heifers were assigned randomly to three groups (n=5 per group): 1) 3 iv doses of 15 mg human kisspeptin-10 at 1 h intervals (Kp10 group), 2) pretreatment with single im dose of Cetrorelix acetate (20 μg/Kg of body weight, GnRH antagonist—Sigma #C5249 diluted in 5% D-Manitol w/v, Sigma #M4125) followed 3 h later with 3 iv doses of 15 mg human kisspeptin-10 at 1 h intervals (Cetrorelix group), or 3) 3 iv doses of normal saline at 1 h intervals (Control group). Following treatment (on Day 6), ovarian ultrasound examinations were performed daily until the end of the experiment to detect ovulation of the extant dominant follicle (i.e., dominant follicle present at the time of treatment) or of the dominant follicle originating from a subsequent wave. The progesterone device was withdrawn on Day 12 (i.e., thirteen days after insertion) and ultrasound examinations were continued until ovulation was detected.\nBlood samples and hormone assays: Serial blood samples on the day of treatment were collected at 15 minute intervals from −30 to 150 min (0 min=time of first hKP-10 or saline injection) using the indwelling jugular catheter. All blood samples were collected in heparinized tubes (Vacutainer, BD, Franklin Lakes NJ, USA). Immediately after sampling, tubes were centrifuged at 1,500×g for 15 min, and plasma was separated and stored at −20° C.\nThe plasma samples from both experiments were analyzed for LH and progesterone concentration at the University of Wisconsin (Madison, WI, USA) in Dr O. J. Ginther's Research Laboratory. Plasma LH concentrations were measured with a validated radioimmunoassay for cattle (Bolt et al. 1990) with modifications as reported Ginther et al. 1999). Briefly, LH concentrations were measured in duplicate using USDA-bLH-B-6 for ^125I-iodination and for preparing reference standards, and USDA-309-684P as the primary antibody (National Hormone and Pituitary Program, Torrance, CA, USA). […]",
  "key": {"[1]": {"conditions": "Day 6 of wave, low progesterone, Kp10 3 x 15 mg iv, Cetrorelix 20 μg/Kg im 3 h before Kp10"}, "[2]": {"conditions": "Kp10 3 x 15 mg iv, Cetrorelix 20 μg/Kg im 3 h before Kp10"}},
  "note": "Where “and” joins values, the source holds several entries; their conditions need not be identical. Equal entries are not always repeated. Square brackets hold non-standard residues; d marks the D form. Peptide text beside a SMILES is read from it. dPhe(4-Cl) = N[C@H](Cc1ccc(Cl)cc1)C(=O)O; d2Nal = N[C@H](Cc1ccc2ccccc2c1)C(=O)O; dCit = NC(=O)NCCC[C@@H](N)C(=O)O; d3Pal = N[C@H](Cc1cccnc1)C(=O)O",
  "data": [
    {"smiles": "CC(=O)N[C@H](Cc1ccc2ccccc2c1)C(=O)N[C@H](Cc1ccc(Cl)cc1)C(=O)N[C@H](Cc1cccnc1)C(=O)N[C@@H](CO)C(=O)N[C@@H](Cc1ccc(O)cc1)C(=O)N[C@H](CCCNC(N)=O)C(=O)N[C@@H](CC(C)C)C(=O)N[C@@H](CCCNC(=N)N)C(=O)N1CCC[C@H]1C(=O)N[C@H](C)C(N)=O", "note": "[Cetrorelix, N-acetyl-3-(2-naphthyl)-D-alanyl-4-chloro-D-phenylalanyl-3-(3-pyridyl)-D-alanyl-L-seryl-L-tyrosyl-D-citrullyl-L-leucyl-L-arginyl-L-prolyl-D-alaninamide] (Ac-[d2Nal][dPhe(4-Cl)][d3Pal]SY[dCit]LRP[dA]-NH2)", "values": [
      {"measurement": "Dominant follicle diameter 24 h after treatment", "setting": "[1]", "value": "13.38 ± 0.55", "unit": "mm"},
      {"measurement": "Dominant follicle diameter 48 h after treatment", "setting": "[1]", "value": "12.91 ± 0.55", "unit": "mm"},
      {"measurement": "Dominant follicle diameter at time of treatment", "setting": "[1]", "value": "13.01 ± 0.68", "unit": "mm"},
      {"measurement": "Emergence of a new follicular wave after treatment", "setting": "Day 6 of wave, low progesterone, Kp10 3 x 15 mg iv, Cetrorelix single im 20 μg/Kg 3 h before Kp10", "value": "3.40 ± 0.75 days and 3.4 days"},
      {"measurement": "Emergence of a new follicular wave after treatment", "setting": "Day 6 of wave, low progesterone, Kp10 3 x 15 mg iv, Cetrorelix single im 20 μg/Kg 3 h before Kp10, listed as Cetrorelix acetate", "value": "about 3.40±0.75 days"},
      {"measurement": "Day of ovulation of new dominant follicles after CIDR removal (Day 12)", "setting": "Day of follicular wave", "value": 15},
      {"measurement": "Heifers in which a new wave emergence occurred", "setting": "[2]", "value": "5 of 5"},
      {"measurement": "Number of ovulations after CIDR removal on Day 12: Extant dominant follicle", "setting": "[2]", "value": "0/5"},
      {"measurement": "Number of ovulations after CIDR removal on Day 12: New dominant follicle", "setting": "[2]", "value": "5/5"},
      {"measurement": "Plasma LH concentration / kisspeptin-induced LH surge", "setting": "[2]", "value": "suppressed the kisspeptin-induced LH surge"},
      {"measurement": "Time by which the dominant follicle entered the regression phase", "setting": "after kisspeptin and GnRH antagonist treatment", "value": "≤ 72", "unit": "h"}
    ]}
  ]
}
